According to patent US8003124B2, “Sustained release implants and methods for subretinal delivery of bioactive agents to treat or prevent retinal disease” (Surmodics, Inc., priority 2005, dated 2011):

Legend:
rabbit eye = details: in vivo
Procedure: Pupils were fully dilated before implantation with 1 drop each of cyclopentolate hydrochloride 1% (Bausch & Lomb, Rochester, N.Y.) and phenylephrine hydrochloride 5% (Bausch & Lomb). […] A periocular surgical prep was performed by swabbing the area using a 1:10 dilution of povidone iodine in saline. The surface of the eye was prepped with a 1:20 dilution of povidone iodine in saline. The rabbit was positioned under the operating microscope and draped. A wire lid speculum was placed.
A two-port core vitrectomy was performed, with illumination provided by the operating microscope (Carl Zeiss Ophthalmic Systems, Inc.). […] The feathered shape and semi-rigid structure of the implant allowed easy insertion. […] At the conclusion of surgery, a subconjunctival injection of antibiotic, 0.1 cc of 40 mg/ml gentamycin (Phoenix Scientific, St. Joseph, Mo.) and 0.1 cc of 2 mg/ml dexamethasone (Phoenix Scientific) was administered away from the surgery site. […]
Complete ophthalmic examinations using indirect ophthalmoscopy and a 20-diopter lens (Vantage Indirect Ophthalmoscope, Keeler Ltd., Windsor, England) were performed at baseline and 1, 2, and 4 weeks postoperatively. […] The lens was inspected for cataract formation and further evaluated with respect to any lens touch that may have occurred during the implantation.

[1] = three days following an injection; cited from earlier work
[2] = In vivo elution: TA by HPLC in eye tissues, aqueous and blood after subretinal PCL/TA 60:40 implant; details: four weeks after subretinal PCL/TA 60:40 implant, rabbit

CO[C@H]1C[C@@H]2CC[C@@H](C)[C@@](O)(O2)C(=O)C(=O)N2CCCC[C@H]2C(=O)O[C@H]([C@H](C)C[C@@H]2CC[C@@H](O)[C@H](OC)C2)CC(=O)[C@H](C)/C=C(\C)[C@@H](O)[C@@H](OC)C(=O)[C@H](C)C[C@H](C)/C=C/C=C/C=C/1C [rapamycin]
biocompatibility / toxicity, clinical examinations (rabbit eye): may be toxic to the rabbit eye at the current doses

C[C@]12C=CC(=O)C=C1CC[C@H]1[C@@H]3C[C@@H](O)[C@](O)(C(=O)CO)[C@@]3(C)C[C@H](O)[C@@]12F [triamcinolone]
share of the triamcinolone present in the vitreous associated with other tissues including the retina, pigment epithelium, and sclera [1]: less than 1%

CC1(C)O[C@@H]2C[C@H]3[C@@H]4CCC5=CC(=O)C=C[C@]5(C)[C@@]4(F)[C@@H](O)C[C@]3(C)[C@]2(C(=O)CO)O1 [TA, Triamcinolone acetonide]
TA in the anterior structures (HPLC) [2]: not detected | TA in the blood (HPLC) [2]: not detected | TA in the posterior tissue samples (HPLC) ([2]; qualitative, FIG. 9): confirmed the presence
